Reference: the NIST ThermoML archive (doi:10.1016/j.fluid.2019.112274)

Conditions: Liquid; for speed of sound: Brillouin light scattering; for thermal diffusivity: Dynamic light scattering

CCCCCCCCCC(=O)OCC [ethyl decanoate]
Conditions | speed of sound [m/s] | thermal diffusivity [m2/s]
419.73 K, 7000 kPa | 932.2 | –
423.29 K, 10000 kPa | 949.4 | –
429.05 K, 5000 kPa | – | 6.58e-08
429.1 K, 3000 kPa | – | 6.5e-08
429.14 K, 100 kPa | – | 6.39e-08
429.25 K, 10000 kPa | – | 6.78e-08
429.56 K, 100 kPa | 839.8 | –
429.56 K, 3000 kPa | 868.5 | –
429.6 K, 5000 kPa | 884.8 | –
430.45 K, 7000 kPa | 901.1 | –
432.01 K, 10000 kPa | 925 | –
439.2 K, 10000 kPa | 903.9 | –
439.28 K, 100 kPa | 809.5 | –
439.85 K, 3000 kPa | 836.6 | –
440.02 K, 5000 kPa | 854.6 | –
440.37 K, 7000 kPa | 871.6 | –
444.19 K, 100 kPa | – | 6.21e-08
444.35 K, 5000 kPa | – | 6.4e-08
444.38 K, 3000 kPa | – | 6.32e-08
444.46 K, 10000 kPa | – | 6.59e-08
448.51 K, 10000 kPa | 878.1 | –
449.52 K, 7000 kPa | 845.4 | –
450.25 K, 3000 kPa | 805.8 | –
450.25 K, 5000 kPa | 825.6 | –
451.03 K, 100 kPa | 773.3 | –
458.86 K, 5000 kPa | 801.3 | –
459.76 K, 100 kPa | – | 5.97e-08
459.85 K, 3000 kPa | 778.6 | –
459.9 K, 3000 kPa | – | 6.09e-08
460 K, 10000 kPa | – | 6.34e-08
460.01 K, 7000 kPa | – | 6.23e-08
460.11 K, 100 kPa | 746.8 | –
460.12 K, 5000 kPa | – | 6.16e-08
460.2 K, 7000 kPa | 816 | –
463.71 K, 10000 kPa | 837.3 | –
469.25 K, 3000 kPa | 752.4 | –
469.28 K, 5000 kPa | 771.9 | –
469.32 K, 7000 kPa | 792 | –
469.45 K, 100 kPa | 719.5 | –
470.42 K, 10000 kPa | 819.1 | –
475.26 K, 3000 kPa | – | 5.84e-08
475.27 K, 100 kPa | – | 5.74e-08
475.31 K, 7000 kPa | – | 5.99e-08
475.31 K, 10000 kPa | – | 6.1e-08
475.35 K, 5000 kPa | – | 5.92e-08
479.25 K, 100 kPa | 691.6 | –
479.29 K, 3000 kPa | 724.5 | –
479.47 K, 7000 kPa | 764.5 | –
479.9 K, 5000 kPa | 743.2 | –
481.5 K, 10000 kPa | 791.1 | –
488.69 K, 7000 kPa | 740.9 | –
489.53 K, 3000 kPa | – | 5.62e-08
489.54 K, 5000 kPa | – | 5.69e-08
489.54 K, 7000 kPa | – | 5.76e-08
